Experimental data reported in patent publication US20260226077A1, “TYPE II TOPOISOMERASE INHIBITORS AND METHODS OF MAKING AND USING THEREOF” (Ohio State Innovation Foundation, priority 2023, published 2026).
Converted amounts (≈) assume the structure as drawn. Marks after values point to notes of the source that are not given here.

What was measured:
CACO-2 = test: Permeability: CACO-2 A->B; assay type: in vitro ADME
[1] = tested on: Acinetobacter baumannii 19606; test: MIC against Acinetobacter baumannii 19606; assay type: cell-based
Escherichia coli 25922 = test: MIC against Escherichia coli 25922; assay type: cell-based; conditions: Escherichia coli, 25922
5-HT2b = 5-HT2b (Homo sapiens, UniProt P41595); test: Safety44 screen at 100 μM: 5-HT2b
TopoIV/gyrase = TopoIV/gyrase inhibition ratio; assay type: biochemical
Enterococcus spp. = test: MIC50/90 against Enterococcus spp.; assay type: cell-based; conditions: n = 10 (147), n = 20 (others)
physchem = conditions: pH 7.4, aqueous buffer, kinetic from dmso stock, Kinetic solubility at pH 7.4-7.5 (μM)
[2] = not given; remark: listed apart in the source
Mouse pharmacokinetics = conditions: 284: as free base in immunocompetent mice, 147: no footnote
hERG = hERG (Homo sapiens, UniProt Q12809); test: hERG inhibition; assay type: cell-based
[3] = Human microsomal stability; assay type: in vitro ADME; conditions: microsomes, read-out: Human microsom. t1/2
[4] = tested on: Pseudomonas aeruginosa 27853; test: MIC against Pseudomonas aeruginosa 27853; assay type: cell-based
D83N = test: MIC against D83N mutant; assay type: cell-based
Bacillus anthracis = test: microbe, parasite or virus in culture; assay type: cell-based; conditions: for MIC50: read-out: Bacillus anthracis MIC50 (μg/mL); for MIC90: read-out: Bacillus anthracis MIC90 (μg/mL)
in vivo = conditions: mouse
K562 = K562 cytotoxicity; assay type: cell-based; conditions: Homo sapiens
Streptococcus pneumoniae = test: MIC50/90 against Streptococcus pneumoniae; assay type: cell-based; conditions: for MIC50: n = 5 (147), n = 10 (others); for MIC90: n = 10
FQ-R MRSA = test: MIC against FQ-R MRSA isolates; assay type: cell-based, Staphylococcus aureus; conditions: n = 15 (147), n = 25 (284, 319, gepotidacin); for MIC90: Staphylococcus aureus, MRSA
[5] = Mouse microsomal stability; assay type: in vitro ADME; conditions: microsomes, read-out: Mouse microsom. t1/2
Streptococcus pyogenes = test: MIC50/90 against Streptococcus pyogenes; assay type: cell-based; conditions: for MIC50: n = 5 (147), n = 10 (others); for MIC90: n = 10
Neisseria gonorrhoeae = test: MIC50/90 against Neisseria gonorrhoeae; assay type: cell-based; conditions: Neisseria gonorrhoeae; n = 17 (284, gepotidacin); n = 110 (147)
Streptococcus agalactiae = test: MIC50/90 against Streptococcus agalactiae; assay type: cell-based; conditions: Streptococcus agalactiae; for MIC50: n = 5 (147), n = 10 (others); for MIC90: n = 10
Staphylococcus aureus = test: MIC50/90 against Staphylococcus aureus isolates; assay type: cell-based; conditions: n = 30 (147), n = 100 (284, 319, gepotidacin)
[6] = tested on: CYP 1A, 2B6, 2C8, 2C9, 2C19, 2D6, 3A; test: CYP inhibition at 10 μM; assay type: in vitro ADME
S. aureus ATCC 29213 = assay type: cell-based; conditions: Using S. aureus ATCC 29213
[7] = Permeability: CACO-2 A->B; assay type: in vitro ADME; conditions: human, Caco-2
in vitro [8] = conditions: human, plasma
Escherichia coli = test: MIC50 against Escherichia coli isolates; assay type: cell-based; conditions: n = 8
in vitro [9] = conditions: mouse, plasma
S. aureus 29213 = test: MIC against S. aureus 29213; assay type: cell-based; conditions: Staphylococcus aureus
M121K = test: MIC against M121K mutant; assay type: cell-based
Rat microsomal stability = assay type: in vitro ADME; conditions: microsomes, read-out: Rat microsom. t1/2
[10] = Monkey microsomal stability; assay type: in vitro ADME; conditions: microsomes, read-out: Monkey microsom. t1/2
[11] = Permeability: MDCK II A->B; assay type: in vitro ADME; conditions: dog
Dog microsomal stability = assay type: in vitro ADME; conditions: microsomes, read-out: Dog microsom. t1/2
S. aureus USA300 = test: MIC against S. aureus USA300; assay type: cell-based; conditions: Staphylococcus aureus
S. aureus CF isolate = test: MIC against S. aureus CF isolate; assay type: cell-based; conditions: Staphylococcus aureus
in vitro [12] = conditions: rat, plasma
Pseudomonas aeruginosa = test: MIC50 against Pseudomonas aeruginosa isolates; assay type: cell-based; conditions: n = 8
[13] = all channels
Mycobacterium avium = test: MIC50 against Mycobacterium avium; assay type: cell-based; conditions: n = 4
[14] = tested on: Mycobacterium chimaera intracellulare group; test: MIC50 against Mycobacterium chimaera intracellulare group; assay type: cell-based; conditions: n = 6
[15] = tested on: Burkholderia pseudomallei; test: microbe, parasite or virus in culture; assay type: cell-based
Francisella tularensis = test: microbe, parasite or virus in culture; assay type: cell-based
Mycobacterium abscessus = test: MIC50/90 against Mycobacterium abscessus; assay type: cell-based; conditions: Mycobacteroides abscessus; n = 10
Haemophilus influenzae = test: MIC50/90 against Haemophilus influenzae; assay type: cell-based; conditions: n = 10
[16] = tested on: Staphylococcus epidermidis; test: MIC50/90 against Staphylococcus epidermidis; assay type: cell-based; conditions: n = 10
Burkholderia mallei = test: microbe, parasite or virus in culture; assay type: cell-based; conditions: Burkholderia mallei
Yersinia pestis = test: microbe, parasite or virus in culture; assay type: cell-based
Moraxella catarrhalis = test: MIC50/90 against Moraxella catarrhalis; assay type: cell-based; conditions: n = 10
[17] = in vivo; cited from earlier work

5-HT2b, sequence (P41595 whole entry): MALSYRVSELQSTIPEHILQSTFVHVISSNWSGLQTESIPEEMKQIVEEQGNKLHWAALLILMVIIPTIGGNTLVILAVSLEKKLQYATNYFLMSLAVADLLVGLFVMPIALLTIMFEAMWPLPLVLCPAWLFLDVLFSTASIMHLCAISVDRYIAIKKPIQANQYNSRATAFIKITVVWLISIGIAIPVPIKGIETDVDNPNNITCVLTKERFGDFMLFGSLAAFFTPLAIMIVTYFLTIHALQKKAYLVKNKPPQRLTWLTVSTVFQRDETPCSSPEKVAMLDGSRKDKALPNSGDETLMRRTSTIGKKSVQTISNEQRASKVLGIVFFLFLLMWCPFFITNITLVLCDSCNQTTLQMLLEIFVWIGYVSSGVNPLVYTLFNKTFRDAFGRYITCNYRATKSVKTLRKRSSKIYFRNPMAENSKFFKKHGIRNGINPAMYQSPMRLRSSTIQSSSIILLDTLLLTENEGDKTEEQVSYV
hERG, sequence (Q12809 whole entry): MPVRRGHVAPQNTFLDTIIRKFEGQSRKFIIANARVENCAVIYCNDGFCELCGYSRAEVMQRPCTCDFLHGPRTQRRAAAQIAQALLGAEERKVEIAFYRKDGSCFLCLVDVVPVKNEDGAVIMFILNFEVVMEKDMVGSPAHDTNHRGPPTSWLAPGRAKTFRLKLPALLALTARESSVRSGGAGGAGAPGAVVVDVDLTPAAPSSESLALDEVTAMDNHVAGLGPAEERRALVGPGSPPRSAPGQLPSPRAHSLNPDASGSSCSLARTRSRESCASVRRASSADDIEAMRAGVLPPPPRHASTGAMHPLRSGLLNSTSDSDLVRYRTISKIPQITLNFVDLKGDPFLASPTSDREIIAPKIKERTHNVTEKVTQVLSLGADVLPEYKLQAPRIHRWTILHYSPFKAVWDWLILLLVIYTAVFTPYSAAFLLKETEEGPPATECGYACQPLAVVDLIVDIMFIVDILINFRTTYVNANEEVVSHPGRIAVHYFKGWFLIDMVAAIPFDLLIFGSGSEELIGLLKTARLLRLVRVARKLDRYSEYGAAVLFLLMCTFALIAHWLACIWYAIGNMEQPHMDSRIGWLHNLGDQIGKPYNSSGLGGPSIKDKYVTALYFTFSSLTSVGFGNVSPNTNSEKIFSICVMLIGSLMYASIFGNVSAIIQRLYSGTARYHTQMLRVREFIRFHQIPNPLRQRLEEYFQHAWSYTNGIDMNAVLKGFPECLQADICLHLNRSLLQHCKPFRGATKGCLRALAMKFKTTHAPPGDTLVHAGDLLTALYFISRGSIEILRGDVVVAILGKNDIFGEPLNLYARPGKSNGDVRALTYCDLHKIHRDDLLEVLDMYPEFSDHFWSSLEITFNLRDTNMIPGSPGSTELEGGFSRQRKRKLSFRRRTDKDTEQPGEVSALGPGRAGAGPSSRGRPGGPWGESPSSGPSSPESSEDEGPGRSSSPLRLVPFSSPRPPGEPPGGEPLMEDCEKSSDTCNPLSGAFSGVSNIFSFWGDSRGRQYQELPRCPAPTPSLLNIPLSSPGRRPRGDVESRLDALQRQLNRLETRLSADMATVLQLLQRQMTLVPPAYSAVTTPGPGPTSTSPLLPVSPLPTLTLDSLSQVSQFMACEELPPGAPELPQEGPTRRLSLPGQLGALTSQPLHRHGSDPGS

COc1ccc2ncc(F)c(C[C@H](O)[C@H]3OC[C@H](NCc4cc5c(nn4)OCCS5)CO3)c2n1 [Compound 147, reference compound]
Permeability: CACO-2 A−>B (×10^−6 cm/s) (CACO-2): 5.68 ×10^−6 cm/s | MIC [1]: 64 µg/mL (≈ 131 µM) | MIC (Escherichia coli 25922): > 64 µg/mL | Safety44 screen at 100 μM: 5-HT2b (5-HT2b): 5-HT2b (72%) | TopoIV/gyrase ratio (TopoIV/gyrase): 16 | MIC50 (Enterococcus spp.): 0.25 µg/mL (≈ 0.511 µM) | MIC90 (Enterococcus spp.): 1 µg/mL (≈ 2.04 µM) | solubility kinetic (physchem): 69.6 µM (≈ 34.1 µg/mL) | Mouse plasma protein binding (% unbound): 12 % unbound | Human plasma protein binding (% unbound) [2]: 15 % unbound | Mouse PK AUClast, unbound (μg*h/mL) after 50 mg/kg oral dose (Mouse pharmacokinetics; 50 mg/kg oral): 0.9 µg·h/mL | Mouse Clunbound (Mouse pharmacokinetics): 575 mL/min/kg | IC50 (hERG): 103 µM | half-life [3]: 1.57 h | MIC [4]: > 64 µg/mL | MIC (D83N): 4 to 8 µg/mL (≈ 8.17 to 16.3 µM) | MIC50 (Bacillus anthracis): 2 µg/mL (≈ 4.09 µM) | MIC90 (Bacillus anthracis): 8 µg/mL (≈ 16.3 µM) | Vd (in vivo; Mouse Vdss (L)): 1 L | bioavailability (in vivo; po, Mouse PK Oral bioavailability (%)): 49% | IC50 (K562): 153 µM | MIC50 (Streptococcus pneumoniae): 0.5 µg/mL (≈ 1.02 µM) | MIC90 (FQ-R MRSA): 0.25 µg/mL (≈ 0.511 µM) | half-life [5]: 0.3 to 0.433 h | MIC50 (Streptococcus pyogenes): 0.5 µg/mL (≈ 1.02 µM) | MIC50 (Neisseria gonorrhoeae): > 4 µg/mL | MIC90 (Neisseria gonorrhoeae): > 4 µg/mL | MIC50 (Streptococcus agalactiae): 4 µg/mL (≈ 8.17 µM) | MIC50 (Staphylococcus aureus): 0.12 µg/mL (≈ 0.245 µM) | MIC90 (Staphylococcus aureus): 0.25 µg/mL (≈ 0.511 µM) | CYP inhibition at 10 μM (1A, 2B6, 2C8, 2C9, 2C19, 2D6, 3A) [6]: No issues | Resistance freq. (at 8X MIC) (S. aureus ATCC 29213): 2.02 × 10^−9*

O=C1COc2ncc(CN[C@H]3CO[C@H](CC4Cn5c(=O)ccc6ccc(F)c4c65)OC3)nc2N1 (stereo partly drawn) [Compound 319, 6-(((2-((9-fluoro-4-oxo-1,2-dihydro-4H-pyrrolo[3,2,1-ij]quinolin-1-yl)methyl)-trans-1,3-dioxan-5-yl)amino)methyl)-2H-pyrazino[2,3-b][1,4]oxazin-3(4H)-one]
Papp A→B [7]: 0.8 ×10⁻⁶ cm/s | MIC [1]: 16 µg/mL (≈ 34.2 µM) | MIC (Escherichia coli 25922): 16 µg/mL (≈ 34.2 µM) | half-life (in vitro [8]): 2.18 h | MIC50 (Escherichia coli): 16 µg/mL (≈ 34.2 µM) | TopoIV/gyrase ratio (TopoIV/gyrase): 0.65 | MIC50 (Enterococcus spp.): 4 µg/mL (≈ 8.56 µM) | MIC90 (Enterococcus spp.): 8 µg/mL (≈ 17.1 µM) | half-life (in vitro [9]): > 4 h | solubility kinetic (physchem): 25 µM (≈ 11.7 µg/mL) | Mouse plasma protein binding (% unbound): 27 % unbound | MIC (S. aureus 29213): 0.5 µg/mL (≈ 1.07 µM) | Human plasma protein binding (% unbound) [2]: 23 % unbound | MIC (M121K): 4 µg/mL (≈ 8.56 µM) | half-life (Rat microsomal stability): > 2 h | half-life [10]: > 2 h | half-life [3]: > 2 h | MIC [4]: 64 µg/mL (≈ 137 µM) | MIC (D83N): 4 µg/mL (≈ 8.56 µM) | Papp A→B [11]: 1.96 ×10⁻⁶ cm/s | IC50 (K562): 135 µM | MIC50 (Streptococcus pneumoniae): 1 µg/mL (≈ 2.14 µM) | MIC90 (Streptococcus pneumoniae): 2 µg/mL (≈ 4.28 µM) | half-life (Dog microsomal stability): > 2 h | MIC (S. aureus USA300): 0.5 µg/mL (≈ 1.07 µM) | MIC90 (FQ-R MRSA): 0.5 µg/mL (≈ 1.07 µM) | FQ-R MRSA MIC90 (μg/mL) (FQ-R MRSA): 0.5/0.5 μg/mL | MIC (S. aureus CF isolate): 0.25 µg/mL (≈ 0.535 µM) | half-life [5]: 5.78 h | MIC50 (Streptococcus pyogenes): 2 µg/mL (≈ 4.28 µM) | MIC90 (Streptococcus pyogenes): 8 µg/mL (≈ 17.1 µM) | half-life (in vitro [12]): > 4 h | MIC50 (Streptococcus agalactiae): 16 µg/mL (≈ 34.2 µM) | MIC90 (Streptococcus agalactiae): 32 µg/mL (≈ 68.5 µM) | MIC50 (Staphylococcus aureus): 0.5 µg/mL (≈ 1.07 µM) | MIC90 (Staphylococcus aureus): 1 µg/mL (≈ 2.14 µM) | MIC50 (Pseudomonas aeruginosa): 16 µg/mL (≈ 34.2 µM) | Comprehensive in vitro proarrhythmia assay at 100 μM, inhibition [13]: All <25%

O=c1ccc2ncc(=O)n3c2n1C[C@H]3CN1CCC(NCc2cc3c(cn2)OCCC3)CC1 [gepotidacin, reference compound]
MIC50 (Mycobacterium avium): 32 µg/mL (≈ 71.3 µM) | MIC50 [14]: > 64 µg/mL | MIC50 ([15]; read-out: Burkholderia pseudomallei MIC50 (μg/mL)): 32 µg/mL (≈ 71.3 µM) | MIC90 ([15]; read-out: Burkholderia pseudomallei MIC90 (μg/mL)): 32 µg/mL (≈ 71.3 µM) | MIC [1]: 32 µg/mL (≈ 71.3 µM) | MIC (Escherichia coli 25922): 1 to 2 µg/mL (≈ 2.23 to 4.46 µM) | MIC50 (Enterococcus spp.): 2 µg/mL (≈ 4.46 µM) | MIC90 (Enterococcus spp.): 4 µg/mL (≈ 8.92 µM) | MIC50 (Francisella tularensis; read-out: Francisella tularensis MIC50 (μg/mL)): 0.12 µg/mL (≈ 0.268 µM) | MIC90 (Francisella tularensis; read-out: Francisella tularensis MIC90 (μg/mL)): 0.5 µg/mL (≈ 1.11 µM) | MIC50 (Mycobacterium abscessus): 16 µg/mL (≈ 35.7 µM) | MIC90 (Mycobacterium abscessus): 64 µg/mL (≈ 143 µM) | MIC50 (Haemophilus influenzae): 1 µg/mL (≈ 2.23 µM) | MIC90 (Haemophilus influenzae): 2 µg/mL (≈ 4.46 µM) | MIC [4]: 8 to 16 µg/mL (≈ 17.8 to 35.7 µM) | MIC50 [16]: 0.25 µg/mL (≈ 0.557 µM) | MIC90 [16]: 0.5 µg/mL (≈ 1.11 µM) | MIC50 (Bacillus anthracis): 0.5 µg/mL (≈ 1.11 µM) | MIC90 (Bacillus anthracis): 0.5 µg/mL (≈ 1.11 µM) | MIC50 (Burkholderia mallei; read-out: Burkholderia mallei MIC50 (μg/mL)): 8 µg/mL (≈ 17.8 µM) | MIC90 (Burkholderia mallei; read-out: Burkholderia mallei MIC90 (μg/mL)): ≥ 64 µg/mL | MIC50 (Streptococcus pneumoniae): 0.12 µg/mL (≈ 0.268 µM) | MIC90 (Streptococcus pneumoniae): 0.25 µg/mL (≈ 0.557 µM) | MIC50 (Yersinia pestis; read-out: Yersinia pestis MIC50 (μg/mL)): 0.12 µg/mL (≈ 0.268 µM) | MIC90 (Yersinia pestis; read-out: Yersinia pestis MIC90 (μg/mL)): 0.5 µg/mL (≈ 1.11 µM) | MIC50 (Moraxella catarrhalis): 0.06 µg/mL (≈ 0.134 µM) | MIC90 (Moraxella catarrhalis): 0.06 µg/mL (≈ 0.134 µM) | MIC90 (FQ-R MRSA): 0.5 µg/mL (≈ 1.11 µM) | MIC50 (Streptococcus pyogenes): 0.12 µg/mL (≈ 0.268 µM) | MIC90 (Streptococcus pyogenes): 0.5 µg/mL (≈ 1.11 µM) | MIC50 (Neisseria gonorrhoeae): 0.5 µg/mL (≈ 1.11 µM) | MIC90 (Neisseria gonorrhoeae): 1 µg/mL (≈ 2.23 µM) | MIC50 (Streptococcus agalactiae): 0.5 µg/mL (≈ 1.11 µM) | MIC90 (Streptococcus agalactiae): 1 µg/mL (≈ 2.23 µM) | MIC50 (Staphylococcus aureus): 0.25 µg/mL (≈ 0.557 µM) | MIC90 (Staphylococcus aureus): 0.5 µg/mL (≈ 1.11 µM)

NXL-101
QT-prolongation in clinical studies [17]: withdrawn from clinical studies as a result of QT-prolongation
